From patent publication US6630472B1, “Compounds, pharmaceutical compositions, and methods for stimulating neuronal growth and elongation” (priority 1998, dated 2003)
pKi: −log10 of the molar value.

Target: FKBP12 (Homo sapiens, UniProt P62942)
Sequence (P62942 whole entry, species assumed): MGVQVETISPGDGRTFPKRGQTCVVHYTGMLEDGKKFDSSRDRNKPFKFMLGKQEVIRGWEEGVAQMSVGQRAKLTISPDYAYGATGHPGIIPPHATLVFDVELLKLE
Experiment: rotamase inhibition assay (N-succinyl-Ala-Ala-Pro-Phe-p-nitroanilide, chymotrypsin-coupled)
Assay type: biochemical
Conditions: Rotamase Ki(app)
Description: In the rotamase inhibition assay, isomerization of an artificial substrate N-succinyl-Ala-Ala-Pro-Phe-p-nitroanilide is followed spectrophotometrically. The assay includes the cis form of the substrate, FKBP12, the compound being tested, and chymotrypsin. Chymotrypsin is able to cleave p-nitroaniline from the trans form of the substrate, but not from the cis form. Release of p-nitroaniline is measured spectrophotometrically. Using this assay, various amounts of the FKBP rotamase-inhibiting compounds of formula (I-a) or (I-b) were added to cis-N-succinyl-alanine-alanine-proline-phenylalanine-para-nitroaniline (Bachem, 3132 Kashiwa Street, Torrance, Calif. 90505) in the presence of FKBP12 and chymotrypsin. Spectrophotometric measurements of p-nitroaniline concentrations allowed estimation of the apparent Ki values, which are provided in Table 1 below.
Work on `COc1cc(OC)cc(N2C=C3C4CCCC(C(=O)N3CC2=O)N4C(=O)C(=O)c2cc(OC)c(OC)c(OC)c2)c1` (centres unmarked) [Compound 142] yielded a pKi of 7.27.

Same assay, conditions: apparent Ki; NI = no inhibition at the concentrations tested; read-out: Rotamase Ki(app)
Work on `COC1(C(=O)C(=O)N2C3CCCC2C(=O)N(CCCCc2ccccc2)C3)CCCC1` (centres unmarked) [Compound 100] yielded a pKi of 6.20. Work on `COCC(=O)OC1(C(=O)C(=O)N2C3CCCC2C(=O)N(CCCCc2ccccc2)C3)CCCC1` (centres unmarked) [Compound 101] yielded a pKi of 5.85. Work on `COC(OC)C(=O)OC1(C(=O)C(=O)N2C3CCCC2C(=O)N(CCCCc2ccccc2)C3)CCCC1` (centres unmarked) [Compound 102] yielded a pKi of 6.16. Work on `COC(COC1(C(=O)C(=O)N2C3CCCC2C(=O)N(CCCCc2ccccc2)C3)CCCC1)OC` (centres unmarked) [Compound 103] yielded a pKi of 5.92. With `C=CCC(CC=C)C(=O)OC[C@@H](CN1CC2CCCC(C1=O)N2C(=O)C(=O)C1(COC(=O)COC)CCCC1)OCc1ccccc1` (some centres unmarked) [Compound 108] the pKi was 7.21. In the case of `C=CCC(CC=C)C(=O)OC[C@@H](CN1CC2CCCC(C1=O)N2C(=O)C(=O)C1(COC(C)=O)CCCC1)OCc1ccccc1` (some centres unmarked) [Compound 109], the pKi was 7.31. Compound `C=CCC(CC=C)C(=O)OC[C@H](CN1CC2CCCC(C1=O)N2C(=O)C(=O)C1(COC(=O)COC)CCCC1)OCc1ccccc1` (some centres unmarked) [Compound 110] has a pKi of 7.07. For `C=CCC(CC=C)C(=O)OC[C@H](CN1CC2CCCC(C1=O)N2C(=O)C(=O)C1(COC(C)=O)CCCC1)OCc1ccccc1` (some centres unmarked) [Compound 111], the pKi was 6.18. `COCOC1(C(=O)C(=O)N2C3CCCC2C(=O)N(CCCCc2ccccc2)C3)CCCC1` (centres unmarked) [Compound 112] gave a pKi of 6.00. In the case of `COC(CN1C[C@@H]2[C@H]3CCC[C@@H](C(=O)N2CC1=O)N3C(=O)C(=O)C1(OC)CCCC1)OC` [Compound 115], the pKi was < 4.70. With `COC1(C(=O)C(=O)N2C3CCCC2C2=CN(C4CCCC4)C(=O)CN2C3=O)CCCC1` (centres unmarked) [Compound 116] the pKi was 6.02. In the case of `COc1cc(C(=O)C(=O)N2C3CCCC2C2=CN(C4CCCC4)C(=O)CN2C3=O)cc(OC)c1OC` (centres unmarked) [Compound 117], the pKi was 7.08. In the case of `CCC(C)(C)C(=O)C(=O)N1C2CCCC1C1=CN(C3CCCC3)C(=O)CN1C2=O` (centres unmarked) [Compound 118], the pKi was 6.00. For `COCOC1(C(=O)C(=O)N2[C@@H]3CCC[C@H]2C(=O)N2CC(=O)N(CC(OC)OC)C[C@H]32)CCCC1` [Compound 119], the pKi was < 4.40. `COC[C@@H]1CC[C@@H](C)[C@](O)(C(=O)C(=O)N2C3CCCC2C(=O)N(CCCCc2ccccc2)C3)C1` (some centres unmarked) [Compound 120] showed a pKi of 5.60. Work on `CC(=O)OCC1(C(=O)C(=O)N2C3CCCC2C2=CN(C4CCCC4)C(=O)CN2C3=O)CCCC1` (centres unmarked) [Compound 121] yielded a pKi of 6.11. For `COc1cc(C(=O)C(=O)N2C3CCCC2C2=CN(CC4CC4)C(=O)CN2C3=O)cc(OC)c1OC` (centres unmarked) [Compound 122], the pKi was 6.82. For `CCC(C)(C)C(=O)C(=O)N1C2CCCC1C1=CN(CC3CC3)C(=O)CN1C2=O` (centres unmarked) [Compound 123], the pKi was 5.92. Work on `CC(=O)OCC1(C(=O)C(=O)N2C3CCCC2C2=CN(CC4CC4)C(=O)CN2C3=O)CCCC1` (centres unmarked) [Compound 124] yielded a pKi of 6.42. In the case of `COCOC1(C(=O)C(=O)N2C3CCCC2C2=CN(C4CCCC4)C(=O)CN2C3=O)CCCC1` (centres unmarked) [Compound 135], the pKi was 5.85. `COCOC1(C(=O)C(=O)N2C3CCC[C@@H]2[C@@H]2Cc4c(cc(OC)cc4OC)CN2C3=O)CCCC1` [Compound 136] showed a pKi of 5.62. `COC1(C(=O)C(=O)N2[C@@H]3CCC[C@H]2C(=O)N2Cc4c(cc(C(F)(F)F)cc4C(F)(F)F)C[C@@H]32)CCCC1` [Compound 137] showed a pKi of 5.01. Work on `COC[C@@H]1CC[C@@H](C)[C@](O)(C(=O)C(=O)N2C3CCCC2C(=O)N(Cc2ccc4ccccc4c2)C3)C1` (some centres unmarked) [Compound 138] yielded a pKi of 5.89. `COc1cc(C(=O)C(=O)N2C3CCCC2C(=O)N(Cc2ccc4ccccc4c2)C3)cc(OC)c1OC` (centres unmarked) [Compound 139] gave a pKi of 6.45. Work on `COC[C@@H]1CC[C@@H](C)[C@](O)(C(=O)C(=O)N2C3CCCC2C2=CN(C4CCCC4)C(=O)CN2C3=O)C1` (some centres unmarked) [Compound 140] yielded a pKi of 5.00. `COCOC1(C(=O)C(=O)N2C3CCC[C@@H]2[C@@H]2Cc4cc(OC(F)(F)F)ccc4CN2C3=O)CCCC1` [Compound 141] showed a pKi of 5.40. In the case of `COc1cc(OC)cc(N2C=C3C4CCCC(C(=O)N3CC2=O)N4C(=O)C(=O)C2(COC(C)=O)CCCC2)c1` (centres unmarked) [Compound 143], the pKi was 6.72. `CCC(=O)OC1(C(=O)C(=O)N2C3CCCC2C2=CN(C4CCCC4)C(=O)CN2C3=O)CCCC1` (centres unmarked) [Compound 144] gave a pKi of 5.92. In the case of `COCC(=O)OC1(C(=O)C(=O)N2C3CCCC2C2=CN(C4CCCC4)C(=O)CN2C3=O)CCCC1` (centres unmarked) [Compound 145], the pKi was 5.77. For `COC1(C(=O)C(=O)N2C3CCCC2C2=Cc4cc(C(F)(F)F)cc(C(F)(F)F)c4CN2C3=O)CCCC1` (centres unmarked) [Compound 146], the pKi was < 4.30. Compound `CC(C)C(=O)OC1(C(=O)C(=O)N2C3CCCC2C2=CN(C4CCCC4)C(=O)CN2C3=O)CCCC1` (centres unmarked) [Compound 150] has a pKi of 5.82. Compound `COc1cc(OC)cc(N2C=C3C4CCCC(C(=O)N3CC2=O)N4C(=O)C(=O)C2(OC)CCCC2)c1` (centres unmarked) [Compound 151] has a pKi of 6.28. Compound `COCOCC1(C(=O)C(=O)N2C3CCCC2C2=CN(C4CCCC4)C(=O)CN2C3=O)CCCC1` (centres unmarked) [Compound 152] has a pKi of 5.55. `COc1ccc(OC[C@@H]2CC[C@H](N3CC4CCCC(C3=O)N4C(=O)C(=O)c3cc(OC)c(OC)c(OC)c3)C2)cc1` (some centres unmarked) [Compound 153] showed a pKi of 6.28. `C=CCC(CC=C)C(=O)OC[C@@H]1CC[C@H](N2CC3CCCC(C2=O)N3C(=O)C(=O)c2cc(OC)c(OC)c(OC)c2)C1` (some centres unmarked) [Compound 154] gave a pKi of 6.61. Work on `COc1cc(OC)cc(N2C=C3C4CCCC(C(=O)N3CC2=O)N4C(=O)C(=O)C(C)(C)c2ccccc2)c1` (centres unmarked) [Compound 155] yielded a pKi of 5.92. With `COc1cc(OC)cc(N2C=C3C4CCCC(C(=O)N3CC2=O)N4C(=O)C(=O)C2(c3ccccc3)CCCC2)c1` (centres unmarked) [Compound 156] the pKi was 5.82. With `COc1cc(C(=O)C(=O)N2C3CCCC2C(=O)N(CCc2ccccc2)CC3)cc(OC)c1OC` (centres unmarked) [Compound 159, 1-(2-Oxo-3-phenethyl-3,10-diaza-bicyclo[4.3.1]dec-10-yl)-2-(3,4,5-trimethoxy-phenyl)-ethane-1,2-dione] the pKi was 6.12. For `COc1cc(C(=O)C(=O)N2C3C=CN(CCCCc4ccccc4)C(=O)C2CCC3)cc(OC)c1OC` (centres unmarked) [Compound 162, 1-[2-Oxo-3-(4-phenyl-butyl)-3,10-diaza-bicyclo[4.3.1]dec-4-en-10-yl]-2-(3,4,5-trimethoxy-phenyl)-ethane-1,2-dione], the pKi was 6.46.

Tested on: not given
Experiment: not given
Conditions: not given
Work on `COc1cc(C(=O)C(=O)N2C3CCCC2C(=O)N(CCCCc2ccccc2)C3=O)cc(OC)c1OC` yielded a melting point of 101 to 103 °C.
